# System: sugarcane
# Test: Sugarcane flowering inhibition field trials, floral induction rated on UFSCar scale
# Type: in vivo
# Protocol: In order to explore the activity of florpyrauxifen as flowering inhibitor in sugarcane, field studies were carried out. Florpyrauxifen-benzyl was tested at rates from 2 to 20 grams active ingredient per hectare (g ai/ha) and compared to Ethrel® 720 (Bayer), the standard treatment. The flowering inhibition effect was assessed by checking the floral induction in sugarcane through the percentage scale recommended by UFSCar (Federal University of Sao Carlos, Sao Paulo, Brazil).
# Four trials were carried out in sugarcane where florpyrauxifen-benzyl (Rinskor®), applied at a rate of 2 to 20 g ai/ha, was compared to ethephon (Ethrel® 720) applied at a rate of 475 g ai/ha. Control plots of untreated sugarcane were also evaluated. Rinskor® and Ethrel® 720 were diluted in water and a single application for each study (backpack sprayer) was performed delivering 50 L of spray solution per ha at the reproductive stage of sugarcane and at a maximum 150 days before harvest. The activity of florpyrauxifen-benzyl as a flowering inhibitor was measured via assessments (Scale of flowering inhibition—see chart 1) performed at 0, 14, 30, 45, 60, 75, 90, 120, 150 days after application, or up to harvest time. The assessments were measured in sugarcane stems, rating the flowering induction according to the UFSCar scale shown below. Significance of treatment effect was evaluated with F-approximate test (α=0.1) and least square means from different treatments were compared with Tukey's test.
compound,measurement,setting,value
"COc1c(Cl)ccc(-c2nc(C(=O)OCc3ccccc3)c(Cl)c(N)c2F)c1F [Rinskor, florpyrauxifen-benzyl]",Frequency 1/1 (0%),"Table 2, 120 DAA, 5 g ai/ha",0.0%
same,Frequency 2/1 (15%),"Table 2, 120 DAA, 5 g ai/ha",0.0%
same,Frequency 3/1 (30%),"Table 2, 120 DAA, 5 g ai/ha",0.0%
same,Frequency 4/1 (50%),"Table 2, 120 DAA, 5 g ai/ha",0.0%
same,Frequency 4/2 (80%),"Table 2, 120 DAA, 5 g ai/ha",7.5%
same,Frequency 4/3 (90%),"Table 2, 120 DAA, 5 g ai/ha",20.0%
same,Frequency 4/4 (100%),"Table 2, 120 DAA, 5 g ai/ha",72.5%
same,% Referring to Scale,"Table 2, 120 DAA, 7 g ai/ha",97.0%
same,Frequency 1/1 (0%),"Table 2, 120 DAA, 7 g ai/ha",0.0%
same,Frequency 2/1 (15%),"Table 2, 120 DAA, 7 g ai/ha",0.0%
same,Frequency 3/1 (30%),"Table 2, 120 DAA, 7 g ai/ha",0.0%
same,Frequency 4/1 (50%),"Table 2, 120 DAA, 7 g ai/ha",0.0%
same,Frequency 4/2 (80%),"Table 2, 120 DAA, 7 g ai/ha",5.0%
same,Frequency 4/3 (90%),"Table 2, 120 DAA, 7 g ai/ha",20.0%
same,Frequency 4/4 (100%),"Table 2, 120 DAA, 7 g ai/ha",75.0%
same,% Referring to Scale,"Table 2, 120 DAA, 10 g ai/ha",96.8%
same,Frequency 1/1 (0%),"Table 2, 120 DAA, 10 g ai/ha",0.0%
same,Frequency 2/1 (15%),"Table 2, 120 DAA, 10 g ai/ha",0.0%
same,Frequency 3/1 (30%),"Table 2, 120 DAA, 10 g ai/ha",0.0%
same,Frequency 4/1 (50%),"Table 2, 120 DAA, 10 g ai/ha",0.0%
same,Frequency 4/2 (80%),"Table 2, 120 DAA, 10 g ai/ha",10.0%
same,Frequency 4/3 (90%),"Table 2, 120 DAA, 10 g ai/ha",12.5%
same,Frequency 4/4 (100%),"Table 2, 120 DAA, 10 g ai/ha",77.5%
same,% Referring to Scale,"Table 2, 120 DAA, 15 g ai/ha",98.5%
same,Frequency 1/1 (0%),"Table 2, 120 DAA, 15 g ai/ha",0.0%
same,Frequency 2/1 (15%),"Table 2, 120 DAA, 15 g ai/ha",0.0%
same,Frequency 3/1 (30%),"Table 2, 120 DAA, 15 g ai/ha",0.0%
same,Frequency 4/1 (50%),"Table 2, 120 DAA, 15 g ai/ha",0.0%
same,Frequency 4/2 (80%),"Table 2, 120 DAA, 15 g ai/ha",0.0%
same,Frequency 4/3 (90%),"Table 2, 120 DAA, 15 g ai/ha",15.0%
same,Frequency 4/4 (100%),"Table 2, 120 DAA, 15 g ai/ha",85.0%
same,% Referring to Scale,"Table 2, 120 DAA, 20 g ai/ha",97.5%
same,Frequency 1/1 (0%),"Table 2, 120 DAA, 20 g ai/ha",0.0%
same,Frequency 2/1 (15%),"Table 2, 120 DAA, 20 g ai/ha",0.0%
same,Frequency 3/1 (30%),"Table 2, 120 DAA, 20 g ai/ha",0.0%
same,Frequency 4/1 (50%),"Table 2, 120 DAA, 20 g ai/ha",0.0%
same,Frequency 4/2 (80%),"Table 2, 120 DAA, 20 g ai/ha",7.5%
same,Frequency 4/3 (90%),"Table 2, 120 DAA, 20 g ai/ha",10.0%
same,Frequency 4/4 (100%),"Table 2, 120 DAA, 20 g ai/ha",82.5%
same,% Referring to Scale,"Table 3, 90 DAA, 2 g ai/ha",0.0%
same,Frequency 1/1 (0%),"Table 3, 90 DAA, 2 g ai/ha",100.0%
same,Frequency 2/1 (15%),"Table 3, 90 DAA, 2 g ai/ha",0.0%
same,Frequency 3/1 (30%),"Table 3, 90 DAA, 2 g ai/ha",0.0%
same,Frequency 4/1 (50%),"Table 3, 90 DAA, 2 g ai/ha",0.0%
same,Frequency 4/2 (80%),"Table 3, 90 DAA, 2 g ai/ha",0.0%
same,Frequency 4/3 (90%),"Table 3, 90 DAA, 2 g ai/ha",0.0%
same,Frequency 4/4 (100%),"Table 3, 90 DAA, 2 g ai/ha",0.0%
same,% Referring to Scale,"Table 3, 90 DAA, 5 g ai/ha",0.0%
same,Frequency 1/1 (0%),"Table 3, 90 DAA, 5 g ai/ha",100.0%
same,Frequency 2/1 (15%),"Table 3, 90 DAA, 5 g ai/ha",0.0%
same,Frequency 3/1 (30%),"Table 3, 90 DAA, 5 g ai/ha",0.0%
same,Frequency 4/1 (50%),"Table 3, 90 DAA, 5 g ai/ha",0.0%
same,Frequency 4/2 (80%),"Table 3, 90 DAA, 5 g ai/ha",0.0%
same,Frequency 4/3 (90%),"Table 3, 90 DAA, 5 g ai/ha",0.0%
same,Frequency 4/4 (100%),"Table 3, 90 DAA, 5 g ai/ha",0.0%
same,% Referring to Scale,"Table 3, 90 DAA, 7 g ai/ha",0.0%
same,Frequency 1/1 (0%),"Table 3, 90 DAA, 7 g ai/ha",100.0%
same,Frequency 2/1 (15%),"Table 3, 90 DAA, 7 g ai/ha",0.0%
same,Frequency 3/1 (30%),"Table 3, 90 DAA, 7 g ai/ha",0.0%
same,Frequency 4/1 (50%),"Table 3, 90 DAA, 7 g ai/ha",0.0%
same,Frequency 4/2 (80%),"Table 3, 90 DAA, 7 g ai/ha",0.0%
same,Frequency 4/3 (90%),"Table 3, 90 DAA, 7 g ai/ha",0.0%
same,Frequency 4/4 (100%),"Table 3, 90 DAA, 7 g ai/ha",0.0%
same,% Referring to Scale,"Table 3, 90 DAA, 10 g ai/ha",0.4%
same,Frequency 1/1 (0%),"Table 3, 90 DAA, 10 g ai/ha",97.5%
same,Frequency 2/1 (15%),"Table 3, 90 DAA, 10 g ai/ha",2.5%
same,Frequency 3/1 (30%),"Table 3, 90 DAA, 10 g ai/ha",0.0%
same,Frequency 4/1 (50%),"Table 3, 90 DAA, 10 g ai/ha",0.0%
same,Frequency 4/2 (80%),"Table 3, 90 DAA, 10 g ai/ha",0.0%
same,Frequency 4/3 (90%),"Table 3, 90 DAA, 10 g ai/ha",0.0%
same,Frequency 4/4 (100%),"Table 3, 90 DAA, 10 g ai/ha",0.0%
same,% Referring to Scale,"Table 3, 90 DAA, 15 g ai/ha",0.0%
same,Frequency 1/1 (0%),"Table 3, 90 DAA, 15 g ai/ha",100.0%
same,Frequency 2/1 (15%),"Table 3, 90 DAA, 15 g ai/ha",0.0%
same,Frequency 3/1 (30%),"Table 3, 90 DAA, 15 g ai/ha",0.0%
same,Frequency 4/1 (50%),"Table 3, 90 DAA, 15 g ai/ha",0.0%
same,Frequency 4/2 (80%),"Table 3, 90 DAA, 15 g ai/ha",0.0%
same,Frequency 4/3 (90%),"Table 3, 90 DAA, 15 g ai/ha",0.0%
same,Frequency 4/4 (100%),"Table 3, 90 DAA, 15 g ai/ha",0.0%
same,% Referring to Scale,"Table 3, 90 DAA, 20 g ai/ha",0.0%
same,Frequency 1/1 (0%),"Table 3, 90 DAA, 20 g ai/ha",100.0%
same,Frequency 2/1 (15%),"Table 3, 90 DAA, 20 g ai/ha",0.0%
same,Frequency 3/1 (30%),"Table 3, 90 DAA, 20 g ai/ha",0.0%
same,Frequency 4/1 (50%),"Table 3, 90 DAA, 20 g ai/ha",0.0%
same,Frequency 4/2 (80%),"Table 3, 90 DAA, 20 g ai/ha",0.0%
same,Frequency 4/3 (90%),"Table 3, 90 DAA, 20 g ai/ha",0.0%
same,Frequency 4/4 (100%),"Table 3, 90 DAA, 20 g ai/ha",0.0%
same,% Referring to Scale,"Table 3, 120 DAA, 2 g ai/ha",5.6%
same,Frequency 1/1 (0%),"Table 3, 120 DAA, 2 g ai/ha",62.5%
same,Frequency 2/1 (15%),"Table 3, 120 DAA, 2 g ai/ha",37.5%
same,Frequency 3/1 (30%),"Table 3, 120 DAA, 2 g ai/ha",0.0%
same,Frequency 4/1 (50%),"Table 3, 120 DAA, 2 g ai/ha",0.0%
same,Frequency 4/2 (80%),"Table 3, 120 DAA, 2 g ai/ha",0.0%
same,Frequency 4/3 (90%),"Table 3, 120 DAA, 2 g ai/ha",0.0%
same,Frequency 4/4 (100%),"Table 3, 120 DAA, 2 g ai/ha",0.0%
same,% Referring to Scale,"Table 3, 120 DAA, 5 g ai/ha",6.9%
same,Frequency 1/1 (0%),"Table 3, 120 DAA, 5 g ai/ha",62.5%
same,Frequency 2/1 (15%),"Table 3, 120 DAA, 5 g ai/ha",32.5%
same,Frequency 3/1 (30%),"Table 3, 120 DAA, 5 g ai/ha",2.5%
same,Frequency 4/1 (50%),"Table 3, 120 DAA, 5 g ai/ha",2.5%
same,Frequency 4/2 (80%),"Table 3, 120 DAA, 5 g ai/ha",0.0%
same,Frequency 4/3 (90%),"Table 3, 120 DAA, 5 g ai/ha",0.0%
same,Frequency 4/4 (100%),"Table 3, 120 DAA, 5 g ai/ha",0.0%
same,% Referring to Scale,"Table 3, 120 DAA, 7 g ai/ha",3.0%
same,Frequency 1/1 (0%),"Table 3, 120 DAA, 7 g ai/ha",80.0%
same,Frequency 2/1 (15%),"Table 3, 120 DAA, 7 g ai/ha",20.0%
same,Frequency 3/1 (30%),"Table 3, 120 DAA, 7 g ai/ha",0.0%
same,Frequency 4/1 (50%),"Table 3, 120 DAA, 7 g ai/ha",0.0%
same,Frequency 4/2 (80%),"Table 3, 120 DAA, 7 g ai/ha",0.0%
same,Frequency 4/3 (90%),"Table 3, 120 DAA, 7 g ai/ha",0.0%
same,Frequency 4/4 (100%),"Table 3, 120 DAA, 7 g ai/ha",0.0%
same,% Referring to Scale,"Table 3, 120 DAA, 10 g ai/ha",4.1%
